Data from patent publication US10626094B2 (La Jolla Institute of Allergy & Immunology, priority 2014, dated 2020).

Molecular target: LMPTP-A (Low Molecular Weight Protein Tyrosine Phosphatase-A) enzyme (Homo sapiens (Human), UniProt P24666)
Assay: LMPTP primary screening / LMPTP (OMFP) enzyme inhibition assay, fluorescence intensity
Assay type: biochemical
Settings: LMPTP-A, OMFP substrate, method of Example 2; read-out: IC50
How it was run: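 0.625 nM LMPTP-A with 400 μM OMFP substrate in 50 mM Bis-Tris pH 6.0, 1 mM DTT, 0.01% Triton X-100, […]. Compounds at 20 μM final. Incubated 50 min at room temperature in the dark; fluorescence intensity read.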

Sequence of LMPTP-A (Low Molecular Weight Protein Tyrosine Phosphatase-A) enzyme (P24666 whole entry): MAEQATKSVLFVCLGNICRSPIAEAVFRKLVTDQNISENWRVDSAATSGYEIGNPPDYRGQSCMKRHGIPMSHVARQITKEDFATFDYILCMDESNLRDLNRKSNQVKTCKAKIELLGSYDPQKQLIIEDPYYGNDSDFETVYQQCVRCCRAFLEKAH

Row | Molecule | IC50
1 | CC(=O)OCc1cccc(-c2cc(NCCCN3CCCCC3)c3ccccc3n2)c1 [Compound I79, 3-{4-[(3-piperidylpropyl)amino]-2-quinolyl}phenyl)methyl acetate] | 0.801 to 5 µM
2 | CN(C)c1cc(-c2ccc(OC(F)(F)F)cc2)nc2ccccc12 [Compound G5, N,N-dimethyl-2-(4-(trifluoromethoxy)phenyl)quinolin-4-amine] | 0.801 to 5 µM
3 | CCN(CC)CCCNc1cc(-c2ccc(C(N)=O)cc2)nc2ccccc12 [Compound I218, 4-(4-{[3-(diethylamino)propyl]amino}-2-quinolyl)benzamide] | > 5 µM
4 | CN(C)c1cc(-c2ccccc2C(F)(F)F)nc2ccccc12 [Compound D2, N,N-dimethyl-2-(2-(trifluoromethyl)phenyl)quinolin-4-amine] | 0.801 to 5 µM
5 | COc1ccc(-c2cc(Nc3ccncn3)c3ccccc3n2)cc1 [Compound G70, [2-(4-methoxyphenyl)(4-quinolyl)]pyrimidin-4-ylamine] | 0.801 to 5 µM
6 | FC(F)(F)c1ccc(C(F)(F)F)c(-c2cc(Nc3cccc(CC4CCNCC4)c3)c3ccccc3n2)c1 [Compound I41, {2-[2,5-bis(trifluoromethyl)phenyl](4-quinolyl)}[3-(4-piperidylmethyl)phenyl]amine] | 0.801 to 5 µM
7 | CC(=O)NCc1ccc(-c2cc(NCCCN3CCCCC3)c3ccccc3n2)cc1 [Compound I255] | 0.2 to 0.8 µM
8 | COc1ccc(-c2cc(NCCC3CCCN3C)c3ccccc3n2)cc1 (stereo not drawn) [Compound I24, [2-(4-methoxyphenyl)(4-quinolyl)][2-(1-methylpyrrolidin-2-yl)ethyl]amine] | 0.801 to 5 µM
9 | CCOC(=O)c1cccc(-c2cc(NCCCN3CCCCC3)c3ccccc3n2)c1 [Compound I137] | 0.801 to 5 µM
10 | Fc1cccc(-c2cc(NCCCN3CCCCC3)c3ccccc3n2)n1 [Compound I97] | 0.801 to 5 µM
11 | FC(F)(F)COc1ccccc1-c1cc(NCCCN2CCCCC2)c2ccccc2n1 [Compound I131] | 0.801 to 5 µM
12 | COc1ccc(-c2cc(Nc3ccc(CN4CCCCC4)cc3)c3ccccc3n2)cc1 [Compound I23, [2-(4-methoxyphenyl)(4-quinolyl)][4-(piperidylmethyl)phenyl]amine] | 0.801 to 5 µM
13 | CCN1CCN(Cc2ccc(Nc3cc(-c4ccc(OC)cc4)nc4c3CCCC4)cc2)CC1 [Compound I206, {4-[(4-ethylpiperazinyl)methyl]phenyl}[2-(4-methoxyphenyl)(4-5,6,7,8-tetrahydroquinolyl)]amine] | 0.801 to 5 µM
14 | CCN(CC)S(=O)(=O)c1ccc(C)c(-c2cc(NCCCN3CCCCC3)c3ccccc3n2)c1 [Compound I242] | > 5 µM
15 | CN(C)CCNc1cc(-c2ccccc2)nc2ccccc12 [Compound I183, dimethyl{2-[(2-phenyl(4-quinolyl))amino]ethyl}amine] | > 5 µM
16 | Cc1nc(C)c(-c2cc(NCCCC3CCCNC3)c3ccccc3n2)s1 (stereo not drawn) [Compound I176, [2-(2,4-dimethyl(1,3-thiazol-5-yl))(4-quinolyl)](3-piperidylpropyl)amine] | 0.801 to 5 µM
17 | CN(C)c1cc(-c2ccco2)nc2ccccc12 [Compound G13, (2-Furan-2-yl-quinolin-4-yl)-dimethyl-amine] | > 5 µM
18 | (2-fluoro-4-{4-[(3-piperidylpropyl)amino](2-quinolyl)}phenyl)-N-methylcarboxamide [Compound I228] | 0.801 to 5 µM
19 | Clc1cccc(-c2cc(NCCCc3cccnc3)c3ccccc3n2)c1 [Compound I202] | 0.801 to 5 µM

Row | Molecule | IC50
20 | CNC(=O)c1ccc(-c2cc(NCCCN3CCCCC3)c3ccccc3n2)cc1 [Compound I73] | 0.801 to 5 µM
21 | Cc1cc(NCCCN2CCCCC2)c2ccccc2n1 [Compound I151] | > 5 µM
22 | Fc1cccc(F)c1-c1cc(NCCCN2CCCCC2)c2ccccc2n1 [Compound I130] | 0.801 to 5 µM
23 | C[N+]1(C)CCC(Cc2cccc(Nc3cc(-c4cc(C(F)(F)F)cc(C(F)(F)F)c4)nc4ccccc34)c2)CC1 [Compound I51, {3-[(1,1-dimethyl(4-piperidyl))methyl]phenyl} {2-[3,5-bis(trifluoromethyl)phenyl](4-quinolyl)}amine] | > 5 µM
24 | FC(F)(F)c1cc(-c2cc(Nc3cccc(CN4CCCC4)c3)c3ccccc3n2)cc(C(F)(F)F)c1 [Compound I44, {2-[3,5-bis(trifluoromethyl)phenyl](4-quinolyl)}[3-(pyrrolidinylmethyl)phenyl]amine] | > 5 µM
25 | Fc1cccc(-c2cc(NCCCN3CCCCC3)c3ccccc3n2)c1 [Compound G7, [2-(3-Fluoro-phenyl)-quinolin-4-yl]-(3-piperidin-1-yl-propyl)-amine] | 0.801 to 5 µM
26 | COc1ccc(-c2cc(NCc3ccccc3OC)c3ccccc3n2)cc1 [Compound G77, [2-(4-methoxyphenyl)(4-quinolyl)][(2-methoxyphenyl)methyl]amine] | 0.801 to 5 µM
27 | Cc1cccc(-c2cc(NCCCN3CCCCC3)c3ccccc3n2)c1C [Compound I161] | 0.801 to 5 µM
28 | Fc1ccc(-c2cc(NCCCC3CCCNC3)c3ccccc3n2)cc1 (stereo not drawn) [Compound I188, [2-(4-fluorophenyl)(4-quinolyl)](3-piperidylpropyl)amine] | 0.801 to 5 µM
29 | N#CCCNC(=O)c1ccc(-c2cc(NCCCN3CCCCC3)c3ccccc3n2)cc1 [Compound I265] | 0.2 to 0.8 µM
30 | CCN(CC)S(=O)(=O)c1ccc(-c2cc(NCCCN3CCCCC3)c3ccccc3n2)cc1 [Compound I246] | 0.801 to 5 µM
31 | NC(=O)c1ccc(-c2cc(NCCCN3CCCCC3)c3ccccc3n2)cc1Cl [Compound I82] | 0.2 to 0.8 µM
32 | O=C(NC1CC1)c1ccc(-c2cc(NCCCN3CCCCC3)c3ccccc3n2)cc1 [Compound I271] | 0.801 to 5 µM
33 | FC(F)(F)c1ccc(Nc2cc(NCCCN3CCCCC3)c3ccccc3n2)c(C(F)(F)F)c1 [Compound I75] | > 5 µM
34 | c1ccc2c(NCCCN3CCCCC3)cc(-c3ccc4c(c3)OCO4)nc2c1 [Compound I167, (2-(2H-benzo[3,4-d]1,3-dioxolen-5-yl)(4-quinolyl))(3-piperidylpropyl)amine] | 0.801 to 5 µM
35 | COc1ccc(-c2cc(Nc3ccc4ccccc4n3)c3ccccc3n2)cc1 [Compound G68, [2-(4-methoxyphenyl)(4-quinolyl)]-2-quinolylamine] | 0.801 to 5 µM
36 | CN(C)Cc1ccc(Nc2cc(-c3cccc(Cl)c3)nc3ccccc23)cc1 [Compound I16, [(4-{[2-(3-chlorophenyl)(4-quinolyl)]amino}phenyl)methyl]dimethylamine] | 0.801 to 5 µM
37 | c1cc2c3c(cc(-c4cc(NCCCN5CCCCC5)c5ccccc5n4)cc3c1)CC2 [Compound I256] | 0.2 to 0.8 µM
38 | CCNC(=O)c1ccc(-c2cc(NCCCN3CCCCC3)c3ccccc3n2)cc1F [Compound I229] | 0.801 to 5 µM

Row | Molecule | IC50
39 | Fc1cc(Cl)ccc1-c1cc(Nc2cccc(CN3CCCC3)c2)c2ccccc2n1 [Compound I10] | 0.801 to 5 µM
40 | CC(=O)Nc1ccccc1-c1cc(NCCCN2CCCCC2)c2ccccc2n1 [Compound I116] | > 5 µM
41 | COc1ccc(-c2cc(Nc3cccc(CN4CCS(=O)(=O)CC4)c3)c3ccccc3n2)cc1 [Compound G62, 4-[(3-{[2-(4-methoxyphenyl)-4-quinolyl]amino}phenyl)methyl]-1,4-thiazaperhydroine-1,1-dione] | 0.801 to 5 µM
42 | CS(=O)(=O)c1cccc(-c2cc(NCCCN3CCCCC3)c3ccccc3n2)c1 [Compound I146] | 0.801 to 5 µM
43 | CC(=O)Nc1ccc(-c2cc(NCCCN3CCCCC3)c3ccccc3n2)cc1 [Compound I117] | 0.801 to 5 µM
44 | COc1ccc(-c2cc(Nc3ccc(CN(C)C)cc3)c3ccccc3n2)cc1 [Compound I26, [(4-{[2-(4-methoxyphenyl)(4-quinolyl)]amino}phenyl)methyl]dimethylamine] | 0.801 to 5 µM
45 | CCN1CCC(Cc2ccc(Nc3cc(-c4ccc(OC)cc4)nc4ccccc34)cc2)CC1 [Compound I33, {4-[(1-ethyl(4-piperidyl))methyl]phenyl}[2-(4-methoxyphenyl)(4-quinolyl)]amine] | 0.801 to 5 µM
46 | COc1cccc(OC)c1-c1cc(NCCCN2CCCCC2)c2ccccc2n1 [Compound I172] | > 5 µM
47 | COc1ccc(-c2cc(Nc3ccc(C)cc3)c3ccccc3n2)cc1 [Compound G43, [2-(4-methoxyphenyl)(4-quinolyl)](4-methylphenyl)amine] | 0.801 to 5 µM
48 | [2-(5-bromo-2-methoxy(4-pyridyl))(4-quinolyl)](3-piperidylpropyl)amine [Compound I89] | 0.801 to 5 µM
49 | CN(C)c1cccc(-c2cc(NCCCN3CCCCC3)c3ccccc3n2)c1 [Compound I129] | 0.801 to 5 µM
50 | COc1ccc(-c2cc(Nc3cccc(CN4CCNCC4)c3)c3ccccc3n2)cc1 [Compound G59, [2-(4-methoxyphenyl)(4-quinolyl)][3-(piperazinylmethyl)phenyl]amine] | 0.801 to 5 µM
51 | COc1ccc(-c2cc(NCCCN3CCCCC3)c3ccccc3n2)cc1OC [Compound I108] | 0.801 to 5 µM
52 | COc1ccc(-c2cc(NC(C)c3ccccc3)c3ccccc3n2)cc1 (stereo not drawn) [Compound G76] | 0.801 to 5 µM
53 | COc1ccc(-c2cc(Nc3cccc(CC4CCN(S(C)(=O)=O)CC4)c3)c3ccccc3n2)cc1 [Compound I28, 4-[(3-{[2-(4-methoxyphenyl)(4-quinolyl)]amino}phenyl)methyl]-1-(methylsulfonyl)piperidine] | 0.801 to 5 µM
54 | COc1ccc(-c2cc(NCc3ccccc3C(F)(F)F)c3ccccc3n2)cc1 [Compound G80, [2-(4-methoxyphenyl)(4-quinolyl)]{[2-(trifluoromethyl)phenyl]methyl}amine] | 0.801 to 5 µM
55 | NCc1ccc(-c2cc(NCCCN3CCCCC3)c3ccccc3n2)cc1 [Compound I148] | 0.2 to 0.8 µM
56 | COc1ccc(-c2cc(Nc3cncnc3)c3ccccc3n2)cc1 [Compound G66, [2-(4-methoxyphenyl)(4-quinolyl)]pyrimidin-5-ylamine] | 0.801 to 5 µM
57 | NC(=O)c1ccc(-c2cc(NCc3ccc(CN4CCOCC4)cc3)c3ccccc3n2)cc1 [Compound I212, 4-[4-({[4-(morpholin-4-ylmethyl)phenyl]methyl}amino)-2-quinolyl]benzamide] | > 5 µM
